This is an account of results in a melting point compilation (Tetko et al.; mined from patent text by program, amines drawn as free bases though some values may be those of a salt).

As usually defined, the melting point is the temperature, or range, at which the solid turns liquid.

In turn, `Nc1ncnc2c1c(-c1ccc(Oc3ccccc3)cc1)cn2[C@H]1CC[C@@H](N2CCCC2)CC1` displayed a melting point of 101 to 104 °C.

The molecule `CCCOc1nc2ccc(Cl)cc2c(=O)n1CCC` displayed a melting point of 64 to 66 °C.

As to `N#CC(C=O)=C(c1ccc(F)cc1)c1ccc(F)cc1`, the melting point lay in the range of 167 to 169 °C.

`NS(=O)(=O)c1cccc(-c2noc(-c3cnn4c(C(F)(F)F)cc(-c5ccc(C(F)(F)F)c(OCC(F)(F)F)c5)nc34)n2)c1` had a melting point of 250 °C.

`CCCc1c(OCCOCCOc2ccc3ccc(OCCCC(=O)O)cc3c2C(C)=O)ccc(C(C)=O)c1O` registered a melting point of 71 to 75 °C.

`CCCCc1oc2ccccc2c1C(=O)NCC(=O)c1ccc2cc(OC)ccc2c1` displayed a melting point of 129 to 131 °C.

As to `O=c1[nH]c2ccc(Cl)cc2c(=O)n1CCCS`, the melting point fell in the range of 255 to 257 °C.

For `CC(C)(C)OC(=O)CN(C(=O)CN1C(=O)c2ccccc2C1=O)c1ccccc1F`, the melting point was determined as 140 °C.

`CCOC(=O)c1c(O)c2ccccc2c2nc3ccccc3nc12` returned a melting point of 126 to 127 °C.

Regarding `Cc1cc2c(cc1O)C(C)(C)CCC2(C)C`, the melting point lay in the range of 122 to 123 °C.

`CC(C)CC(=O)Nc1cccc(-c2ccnc3c(-c4cccc(C(F)(F)F)c4)cnn23)c1` yielded a melting point of 170 to 173 °C.

Molecule `CCN(CC)C(=O)n1cnc(S(=O)(=O)Cc2ccccc2)n1` gave a melting point of 87 to 88 °C.

On to `Oc1ccc(C2=CCCCC2)cc1`, for which the melting point was 115 to 119 °C.

Molecule `CCN1CC2CCCC2C1=C[N+](=O)[O-]` (stereo unspecified) came in with a melting point of 86 °C.

In the case of `COc1ccc2cc(C(Br)Br)ccc2c1`, the melting point is 116 °C.

Turning to `CN1C(=S)N(c2ccc(C#N)c(C(F)(F)F)c2)C(=O)C12CCCC2`, the melting point lay in the range of 162 to 163 °C.

`CCOCC1COc2cc(C(=O)O)c(N)cc2O1` (stereo unspecified) registered a melting point of 124 to 130 °C.

For the molecule `C#Cc1cccc(C(=O)OCc2ccccc2)c1N`, the melting point lay within 42 to 43 °C.

Turning to `CCN(CC)C(=O)n1cnc(S(=O)(=O)CC2CC2)n1`, the melting point fell in the range of 68 to 74 °C.

On to `O=C1c2ccccc2C(=O)N1C1CC=CCC1` (stereo unspecified), for which the melting point worked out at 114 °C.

`COC(=O)c1ccc(OC)c(CC2COc3ccc(OCc4ccccc4)cc3C2O)c1` (stereo unspecified) yielded a melting point of 133 to 135 °C.

As to `NC(=S)NN=C(CCCOC(=O)Nc1ccccc1)c1ccccc1`, the melting point lay in the range of 140 to 142 °C.

Turning to `CC(C)(C)C(NC(=O)c1ccc(Cl)cc1)Nc1c(Nc2cccnc2Cl)c(=O)c1=O` (stereo unspecified), the melting point was 259 to 261 °C.

For the molecule `CCCCCCNC(=O)C1=C(C(=O)Nc2cc(OC3CCCC3)c(Cl)cc2F)CCCC1`, the melting point was in the range of 128 to 130 °C.

Consider `COc1cc2c(=O)n(CCN3CCCCC3)c3c4cc5c(cc4nnc3c2cc1OC)OCO5`, for which the melting point is 294 to 295 °C.

In turn, `N#Cc1cc(N)ccc1N1CCN(CCO)CC1` returned a melting point of 137 to 138 °C.

Molecule `Cc1ccnc2[nH]c(=O)c(CC(=O)N(CCNC(=O)OC(C)(C)C)CC(=O)O)cc12` had a melting point of 133 to 136 °C.

On to `CCON=C(CC)C1=C(O)CC(c2cccc3sccc23)CC1=O` (stereo unspecified), for which the melting point is 76 °C.

The molecule `O=C(O)Cc1c(-c2ccccc2)nn(-c2cccnc2)c1-c1ccccc1` yielded a melting point of 185 to 187 °C.

Molecule `FC(F)Oc1cc(Oc2ccnc(-c3cnccn3)n2)ccn1` yielded a melting point of 128 to 129 °C.

As to `CC(=O)Oc1ccc(C2COc3cc(OC(C)=O)c(OC(C)=O)cc3C2)cc1` (stereo unspecified), the melting point was in the range of 145 to 147 °C.

As for `NS(=O)(=O)c1cc(C(=O)O)cc([N+](=O)[O-])c1NCCc1ccccc1`, the melting point is 208 °C.

Turning to `Cc1ccc(-c2cncc(OC3SCC(O)C(O)C3O)c2)o1` (stereo unspecified), the melting point stood at 188 °C.

`N#Cc1cccc(Br)c1N`: the melting point is 119 to 120 °C.

On to `O=C(Nc1ccccc1-c1nnn[nH]1)C(=O)N1CCC(Cc2ccc(F)cc2)CC1`, for which the melting point was 107 to 109 °C.

Regarding `CCOC(=O)C(Cc1ccc(C#N)cc1)(NC(C)=O)C(=O)OCC`, the melting point is 160 to 163 °C.

Regarding `CC(C)(COc1c(-c2ccccc2)c(=O)oc2ccccc12)CN1CCOCC1`, the melting point amounted to 167 °C.

Molecule `CCCNC(=S)NCCc1cccc2ccc(OC)cc12` came in with a melting point of 95 to 97 °C.

Take `COCCN1CCc2sc(Nc3ncc(F)c(C)n3)nc2-c2c[nH]nc21`: the melting point lay in the range of 261 to 263 °C.

`CN(C)C1(c2ccccc2)CCC(c2[nH]c3ccccc3c2CC2CCCCC2)CC1` (stereo unspecified): the melting point lay within 195 to 198 °C.

As for `CCCCCCCCCCCCCCCCCCNC(=O)OCC(CNS(=O)(=O)CCCI)n1nnnc1C` (stereo unspecified), the melting point is 82.5 to 83.5 °C.

In turn, `CCOC(=O)c1ccc(Cn2cnc3ncccc32)cc1` registered a melting point of 142 to 143 °C.

Take `Cc1sc(C(N)=O)c2c1-c1c(cnn1CC(F)(F)F)CC2`: the melting point lay in the range of 144 to 145 °C.

Molecule `COC(=O)CCc1cccc(Cl)c1C(=O)CCCNC(C)=O` returned a melting point of 51 to 52 °C.

Molecule `CCOC(=O)C(=O)c1cc(Cl)c(C)cc1NC(=O)OC(C)(C)C` yielded a melting point of 111 °C.

On to `O=C(O)c1ccccc1C(=O)NCCCCc1cccnc1`, for which the melting point lay in the range of 132 to 135 °C.

For the molecule `CCSC(=N)Nc1ccc(CCN(C)Cc2ccccc2)cc1`, the melting point was in the range of 136 to 137 °C.

`CC(C)S(=O)(=O)c1cc(OCCc2ccccn2)c2[nH]nc(Nc3ncc(CN4CCOCC4)s3)c2c1`: the melting point is above 190 °C.

Turning to `CCc1noc(C)c1-c1[nH]c2ccccc2c1C(=O)CCC(=O)O`, the melting point lay within 98 to 110 °C.

In turn, `CC(C)NC(=O)c1c(F)cccc1S(=O)C(C)(C)C` (stereo unspecified) yielded a melting point of 120 to 135 °C.

In the case of `O=C(NCc1ccccc1)c1ccnc(NC(=O)c2ccc(OC(F)(F)F)cc2)c1`, the melting point was in the range of 151 to 153 °C.

The molecule `CC1(C)Cc2cccc(S(N)(=O)=O)c2S1` showed a melting point of 102 to 104 °C.

The molecule `CCOC(=O)c1cc2c(cn1)[nH]c1ccc(Br)cc12` displayed a melting point of 308 to 313 °C.

For the molecule `S=C(Nc1ccc(Cl)c(Cl)c1)Nc1ncccc1OCc1ccccc1`, the melting point fell in the range of 144 to 146 °C.

`CCNC(=O)N1CCc2ccc(S(=O)(=O)NC(=O)NC3CCCCC3)cc2CC1` showed a melting point of 158 to 160 °C.

The molecule `CCC(CSC(=S)N(C)C)[N+](=O)[O-]` (stereo unspecified) had a melting point of 23 °C.

Molecule `CC(C)CNS(=O)(=O)c1cccc(NC(=O)c2cnn3c(C(F)(F)F)cc(-c4ccc(C(F)(F)F)cc4)nc23)c1` displayed a melting point of 205 °C.

`CCOc1cc(CN2CCN(c3ccc(C(=O)NC)cc3C)CC2)cc2c1OC(C)C(=O)N2` (stereo unspecified) gave a melting point of 173 to 180 °C.

In turn, `Cc1c(-c2ccc(O)c(Cl)c2)sc(C=O)c1-c1ccc(O)c(F)c1` registered a melting point of 227 to 229 °C.

Regarding `Cc1sc(N)c(C(=O)c2ccc(Cl)cc2)c1CN1CCN(c2ccc(F)cc2)CC1`, the melting point fell in the range of 70 to 72 °C.

Consider `O=C(O)CN1C(=O)c2cccc3c(Sc4ccccc4C(=O)O)ccc(c23)C1=O`, for which the melting point fell in the range of 339 to 341 °C.

For `CC(C)c1c(Cl)sc2[nH]c(=O)c(=O)[nH]c12`, the melting point is above 250 °C.

As to `O=C(NC[C@@H]1CN2C(=O)C[C@H]2O1)c1cc(F)c(F)cc1F` (racemic), the melting point lay in the range of 76.5 to 78.1 °C.

The molecule `NS(=O)(=O)c1ccc(CCC(=O)O)cc1` displayed a melting point of 97 to 99 °C.

In turn, `Cc1c(F)c(F)cc2c(=O)c(C(=O)O)cn(C3CC3)c12` yielded a melting point of 240 to 243 °C.

Take `O=C(NC1CCC(O)CC1)C1CC1` (stereo unspecified): the melting point was in the range of 220 to 222 °C.

Molecule `COc1cc(C(C)=O)ccc1OCCCN1CCC(C(O)(c2ccccc2)c2ccc(F)cc2)CC1` (stereo unspecified) showed a melting point of 147 to 148 °C.

With `O=[N+]([O-])c1cc(S(=O)(=O)C(F)(F)F)[nH]c1-c1ccc(Cl)cc1`, the melting point fell in the range of 97 to 99 °C.

Molecule `CCCCCCCCCCCCCC(=O)c1c(O)c(C)c(C)c(O)c1CCC` displayed a melting point of 70 °C.

Turning to `CC(C)S(=O)(=O)NC(=O)Nc1ccc(Cl)c(C(F)(F)F)c1`, the melting point lay in the range of 135 to 140 °C.

`COc1cc(CON=C(CCC(=O)O)c2ccccc2)cc(OC)c1OCc1nc(-c2ccccc2)oc1C` showed a melting point of 89 to 90 °C.

`O=S(Cc1ccccc1)c1nc2cnccc2[nH]1` (stereo unspecified) showed a melting point of 190 to 193 °C.

`CC1Nc2ccc(S(=O)(=O)N3CCCCC3)cc2S(=O)(=O)N1` (stereo unspecified) came in with a melting point of 255 to 256 °C.

As to `CC(=Cc1ccc(C(=O)O)cc1)c1ccc2c(c1)SCCC2(C)C`, the melting point was 255 to 257 °C.

In the case of `CN(C)CCc1cn(C)c2c(F)ccc(OCc3ccccc3)c12`, the melting point was in the range of 60 to 62 °C.

As for `CC(C)n1nc(-c2c(-c3ccccc3)nc(N)nc2-n2cncn2)ccc1=O`, the melting point fell in the range of 266 to 268 °C.

For the molecule `CC(C)=CC(=O)On1cc(Cl)cn1`, the melting point is 71 °C.

Turning to `CCOC(=O)C(=O)Nc1ccc(NS(C)(=O)=O)cc1`, the melting point was in the range of 136 to 139 °C.

Take `CCc1cccc(CC)c1NC(=O)NCC1(c2ccccc2)CCCCC1`: the melting point was 185 to 186 °C.

For the molecule `CN=C(NC#N)NCCSCc1ccco1`, the melting point lay within 78 to 82 °C.

Turning to `CC1(C)SC2CC(=O)N2C1C#N` (stereo unspecified), the melting point was 73 to 75 °C.

`N#Cc1c(N)cccc1N` registered a melting point of 91 to 92 °C.

With `COC(=O)c1ccc(Cl)cc1OS(C)(=O)=O`, the melting point lay in the range of 82.5 to 84.5 °C.

On to `COc1ccc(Cc2n[nH]c(=O)c3ccccc23)cc1N`, for which the melting point was 212 to 214 °C.

For the molecule `C[C@@H](C(=O)OCCCCNc1cccc2c1C(=O)c1ccccc1C2=O)N(C)C(=O)OC(C)(C)C`, the melting point was determined as 62 °C.

`CC1(C)Oc2ccsc2C(NC(=O)c2ccc(C#N)cc2)C1O` (stereo unspecified) displayed a melting point of 177 to 178 °C.

Molecule `CCC(C)(CCc1ccccc1)NC(=O)n1nc(C)n(N)c1=O` (stereo unspecified) yielded a melting point of 78 °C.

As to `CC[C@@H]1CN(c2c(F)c(N)c3c(=O)c(C(=O)O)cn(C4CC4)c3c2F)C[C@H]1N` (relative stereo), the melting point is 195 to 196 °C.

`Cc1cc(-c2ccc(S(C)=O)cc2)n(-c2ccc(S(N)(=O)=O)cc2)c1` (stereo unspecified) showed a melting point of 222 to 226 °C.

Consider `CN(C)S(=O)(=O)c1ccc2c(c1)S(=O)(=O)NC2=O`, for which the melting point is 198 to 200 °C.

As for `O=S(=O)(CCO)c1cc2c(Nc3cccc(Br)c3)ncnc2cn1`, the melting point was 208 to 209 °C.
